Data as given in the supplement of paper PMC10949913.

Key:
Assay in all cases: area under concentration-response curve (viability) (AUC (a.u.)); higher = less active
Conditions in all cases: 48 h
CU-ACC2 = system: CU-ACC2
Method in brief: (§1)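 Concentration-response curves were fitted to obtain AC50 and area under the curve, keeping inhibitory or non-responding curve classes only. Data came from CellTiter-Glo luminescence, normalised per plate to vehicle and empty-well controls, in three adrenocortical carcinoma cell lines. These were treated in 1,536-well plates with library compounds at 11 concentrations and read after 48 h.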

CU-ACC1 = system: CU-ACC1
Method in brief: as §1

NCI-H295R = system: NCI-H295R
Method in brief: as §1

| SMILES | area under concentration-response curve (CU-ACC2) | area under concentration-response curve (CU-ACC1) | area under concentration-response curve (NCI-H295R) |
| --- | --- | --- | --- |
| CC(C)C[C@H](CC(=O)O)C(=O)N[C@@H](Cc1c[nH]c2ccccc12)C(=O)N[C@@H](C)c1ccccc1 | 622 | 433 | 577 |
| CCO[C@@H]1OC(=O)C[C@@H]1NC(=O)[C@@H]1CCCN2C(=O)CC[C@H](NC(=O)c3nccc4ccccc34)C(=O)N12 | 594 | 568 | 553 |
| CCCCNc1ncc(-c2ccc(CN3CCOCC3)cn2)c(N[C@H]2CC[C@H](O)CC2)n1 | 721 | 612 | 623 |
| N[S+](=O)([O-])NCCNc1nonc1/C(=N/O)Nc1ccc(F)c(Br)c1 | 595 | 524 | 468 |
| Cc1nn(C)c(COc2ccc(N3CCN([S+](=O)([O-])N(C)C)CC3)cc2)c1-c1cccc2c(CCCOc3cccc4ccccc34)c(C(=O)O)n(CCN3CCOCC3)c12 | 580 | 517 | 508 |
| OC(Cn1cncn1)(Cn1cncn1)c1ccc(F)cc1F | 546 | 466 | 514 |
| COc1ccc(CCN2CCN(CCCc3ccccc3)CC2)cc1OC | 627 | 541 | 562 |
| CCN1CCN(c2ccc(Nc3cc(N(C)C(=O)Nc4c(Cl)c(OC)cc(OC)c4Cl)ncn3)cc2)CC1 | 580 | 511 | 479 |
| C=CC(=O)Nc1cc(N2CCN(CC)CC2)ccc1Nc1cc(N(C)C(=O)Nc2c(Cl)c(OC)cc(OC)c2Cl)ncn1 | 566 | 537 | 495 |
| C=C(C)[C@@H]1CC[C@]2(C(=O)O)CC[C@]3(C)[C@H](CC[C@@H]4[C@@]5(C)CC[C@H](O)C(C)(C)[C@@H]5CC[C@]43C)[C@@H]12 | 646 | 541 | 587 |
| COc1cccc(Nc2c(C(N)=O)cnc3c(C)cc([S+](=O)([O-])c4cccc(C(=O)N(C)C)c4)cc23)c1 | 578 | 466 | 545 |
| COC/1=C/[C@@H]2[C@@H]3CC4=C(C(=C(OC)C=C4)O)[C@]2(CCN3C)CC1=O | 519 | 457 | 479 |
| CCOC(=O)[C@H](CCc1ccccc1)N[C@H]1CS[C@H](c2cccs2)CN(CC(=O)O)C1=O.Cl | 584 | 513 | 541 |
| Cc1ccc([S+](=O)([O-])NC(=O)NN2CC3CCCC3C2)cc1 (centres undefined) | 629 | 537 | 579 |
| CNC(=O)Cn1cc(-c2ccc3c(c2)C(F)CC32NC(=O)N(CC(=O)N(Cc3ccc(F)cc3)C(C)C(F)(F)F)C2=O)cn1 (centres undefined) | 546 | 500 | 512 |
| CCOC(=O)N1c2ccc(C(F)(F)F)cc2[C@@H](N(Cc2cc(C(F)(F)F)cc(C(F)(F)F)c2)C(=O)OC)C[C@H]1CC | 636 | 502 | 533 |
| C=CC(=O)N1CCC(CNc2ncnc(N)c2-c2ccc(Oc3ccccc3)cc2)CC1 | 615 | 550 | 566 |

| SMILES | area under concentration-response curve (CU-ACC2) | area under concentration-response curve (CU-ACC1) | area under concentration-response curve (NCI-H295R) |
| --- | --- | --- | --- |
| CC(=O)O[C@H]1C[C@@H]2CC[C@@H]3[C@H](CC[C@@]4(C)[C@H]3C[C@H]([N+]3(C)CCCCC3)[C@@H]4OC(C)=O)[C@@]2(C)C[C@@H]1N1CCCCC1.[Br-] | 632 | 562 | 610 |
| COC1=CC=C(C=C1O)C/2=C/C(=O)C3=C(O2)C=C(O[C@@H]4O[C@H](CO[C@@H]5O[C@@H](C)[C@H](O)[C@@H](O)[C@H]5O)[C@@H](O)[C@H](O)[C@H]4O)C=C3O | 582 | 502 | 554 |
| CC(C)(C)c1cc(C(=O)O)c(NC(=O)Nc2ccc3[nH]ncc3c2)s1 | 614 | 551 | 582 |
| Cc1noc(-c2ccc(CSCCC(=O)O)cc2)c1NC(=O)OC(C)c1ccccc1Cl (centres undefined) | 557 | 469 | 505 |
| CCNCc1nc2c(N)nc3ccccc3c2n1CC(C)(C)O | 556 | 500 | 516 |
| Cc1noc(-c2ccc(-c3ccc(C4(C(=O)O)CC4)cc3)cc2)c1NC(=O)O[C@H](C)c1ccccc1 | 446 | 485 | 526 |
| CC1(C)NC(=O)N(c2ccc([N+](=O)[O-])c(C(F)(F)F)c2)C1=O | 634 | 511 | 543 |
| Cc1ccc(-c2ncn(-c3ccc(Nc4nccc(-c5cccc(N6CCOCC6)c5)n4)cc3)n2)cn1 | 543 | 370 | 549 |
| COC(c1ccccc1)(c1ccccc1)[C@H](Oc1nc(C)cc(C)n1)C(=O)O | 586 | 531 | 578 |
| OC[C@H]1O[C@@H](O[C@@H]2[C@@H](CO)O[C@](O)(CO)[C@H]2O)[C@H](O)[C@@H](O)[C@H]1O | 569 | 508 | 532 |
| CN1\C(=C([O-])/C2=CC=CC=C2[S+]1([O-])=O)C(=O)NC3=NC=C(C)S3 | 572 | 479 | 525 |
| C=C1C(=O)OC(CCCCCCCC)C1C(=O)O (centres undefined) | 457 | 409 | 437 |
| CCCCNc1cc(C(=O)O)cc([S+](N)(=O)[O-])c1Oc1ccccc1 | 596 | 505 | 553 |
| O=C(O)CNC(=O)c1nc(Cl)c2ccccc2c1O | 604 | 498 | 529 |
| Nc1nc(OCc2cc(Br)cs2)c2[nH]cnc2n1 | 616 | 516 | 552 |
| C[C@@H]1CC[C@@]2(OC1)OC1CC3C4CC=C5CC(O)CCC5(C)C4CCC3(C)C1[C@@H]2C (some centres undefined) | 527 | 470 | 465 |
